This is an account of results in US11707448B2, “Combination therapies for the treatment of cancer” (Eisai R&D Management Co., Ltd., priority 2014, dated 2023).

The assay relates to PAN02 pancreatic tumors. As to the kind of experiment: PAN02 pancreatic tumor model, ER-886046 with gemcitabine and radiation. The assay is classed as in vivo, mice. The conditions noted are these: gemcitabine single 40 mg/kg + RT single 6 Gy on day 27; first study (FIG. 10). How it is done: FIG. 10. […] Antitumor activity of gemcitabine plus local radiation (RT) administered to PAN02 pancreatic tumors in C57BL/6 mice with or without ER-886046. Gemcitabine and RT dosing: a single 40 mg/kg dose of gemcitabine and a single 6 Gy dose of RT, was administered on day 27 post tumor cell injection. ER-8806046 was administered daily in an amount of 150 mg/kg from day 27 post tumor cell injection until the end of the study.
FIG. 11A to FIG. 11B. Additional experiments with combination therapy of ER-886046 and anti-metabolite chemotherapy with radiation compared to anti-metabolite chemotherapy with radiation alone. Panel shown in FIG. 11A) Gemcitabine and RT dosing: a single 40 mg/kg dose of gemcitabine and a single 6 Gy dose of RT, was administered on day 19 post tumor cell injection. ER-8806046 was administered daily in an amount of 150 mg/kg from day 19 post tumor cell injection until the end of the study. Panel shown in FIG. 11B) Gemcitabine and RT dosing: a single 40 mg/kg dose of gemcitabine and a single 6 Gy dose of RT, was administered on day 12 post tumor cell injection. ER-8806046 was administered daily in an amount of 150 mg/kg from day 12 post tumor cell injection until the end of the study. Average tumor sizes of mouse pancreatic PAN02 tumor-bearing mice that received vehicles, ER-886046, gemcitabine (gem) plus radiation (RT), ER-886046 plus RT, or ER-886046 plus gemcitabine and RT at indicated dosages and schedules. A and B represent each independent study. N=8-10 per group. NS, not significant; *, p<0.05; **, p<0.01; ***, p<0.001; and ****, p<0.0001, two-way ANOVA test.
Animal studies; In vitro cultured cancer cells were harvested and suspended in 100 μl of cold HBSS buffer at cell concentrations of 1.0×10^6 cells/ml (CT-26 cells) or of 1.0×10^7 cells/ml (PAN02 cells) and subcutaneously (sc) injected into the mice using a 26 g syringe on day 0. At the dates as indicated in the figures, the mice were randomized based on the tumor size followed by treatments with local radiation alone, gemcitabine alone (intravenous administration), ER-886046 alone (oral administration), or combinations of these treatments. […] The tumor sizes were measured twice a week by a digital caliber (Mitutoyo Corp), and the volume was calculated using the formula (1×w^2)/2=mm^3, where 1 and w refer to the larger and smaller perpendicular dimensions collected at each measurement. Graphs of group tumor sizes (mean±SEM) versus time were plotted using software GraphPad Prism 6 (Lake Forest, Calif.). Two way ANOVA was used for statistical calculation among the groups. N=8-10 in each treatment group.

Counter-ions that a name gives are not always drawn.

Turning to `Nc1ccn([C@@H]2O[C@H](CO)[C@@H](O)C2(F)F)c(=O)n1` [gemcitabine, Gemcitabine hydrochloride, reference compound], the “tumor growth delay activity” value is on record as “weak but statistically significant tumor growth delay activity”.
